Reference: patent US20220062279A1, “TREATMENT OF MOVEMENT DISORDERS” (Contera Pharma A/S, priority 2018, published 2022)

Tests used:
locomotor activity = assay: Open field test; settings: buspirone 0.1-30 mg/kg i.p., pentobarbital 15 mg/kg i.p.; 60 minutes observation period; compared to vehicle
[1] = system: rats' motor performance and coordination; assay: Rotarod test; settings: buspirone 0.1-30 mg/kg i.p., pentobarbital 15 mg/kg i.p., 5 or 30 min before test; compared to vehicle
Parkinson's disease = settings: cited from earlier work
[2] = system: unilaterally 6-OHDA-lesioned rats; assay: L-DOPA induced AIMs test in the 6-OHDA rat model; format: in vivo; settings: previously shown by the applicant
LID = settings: cited from earlier work

| Compound | Open field performance (locomotor activity) (locomotor activity) | Rotarod performance (time spent on the accelerating rod) [1] | disability ratings (Parkinson's disease; 100 mg/day) | dyskinesia (Parkinson's disease; 100 mg/day) | effects on Parkinson's disease or dyskinesia (Parkinson's disease; 10-60 mg/day) | L-DOPA-induced involuntary movements [2] | effects compared to placebo (LID; phase 2b and 3 studies) | LID (LID; pre-clinical and clinical studies) |
| --- | --- | --- | --- | --- | --- | --- | --- | --- |
| CCCC(C)C1(CC)C(=O)NC(=O)NC1=O (stereo not shown) [Pentobarbital] | significantly reduced motor performance | significantly reduces time spent on the rotarod | – | – | – | – | – | – |
| O=C1CC2(CCCC2)CC(=O)N1CCCCN1CCN(c2ncccn2)CC1 [buspirone, 8-[4-(4-pyrimidin-2-ylpiperazin-1-yl)butyl]-8-azaspiro[4.5]decane-7,9-dione] | dose dependently is able to affect performance in the open field test | affect performance in the rotarod model in a dose dependent manner | significant worsening of disability ratings | reduced dyskinesia | did not have any effects on Parkinson's disease or dyskinesia | dose dependently reduce L-DOPA-induced involuntary movements | – | – |
| Fc1ccc(-c2cncc(CNC[C@H]3CCc4ccccc4O3)c2)cc1 [sarizotan, 1-[(2R)-3,4-dihydro-2H-chromen-2-yl]-N-([5-(4-fluorophenyl)pyridin-3-yl]methyl)methanamine] | – | – | – | – | – | – | no significant effects | reduced LID |
